From patent US12226490B2, “Anti-ROR1 antibody conjugates, compositions comprising anti ROR1 antibody conjugates, and methods of making and using anti-ROR1 antibody conjugates preliminary class” (Sutro Biopharma, Inc., priority 2022, dated 2025) come the findings set out here.

Data set [1] relates to ROR1 positive Ntera-2 cell. The experiment in a line: In vitro cell killing of ROR1 ADCs, ROR1 positive cells (Cell Titer-Glo, 120 hours). The data set is classed as cell-based, human. The following applies: Table 13. The source says: (§1) Ntera-2, MDA-MB-231, MCF7, HCT116 and Mino cells were obtained from ATCC. HCT116-hRor1-D02 clone was generated by transfecting HCT116 cells with a plasmid containing human Ror1 cDNA sequence and selected for highest stable expression of hRor1 on the cell surface. MDA-MB-231, MCF7, HCT116 and HCT116-Ror1 cell were maintained in Ham's F-12 high glucose DMEM (50-50) (Cellgro-Mediatech; Manassas, VA) supplemented with 10% heat-inactivated fetal bovine serum (Hyclone; Thermo Scientific; Waltham, MA), 1% Penicillin/Streptomycin (Cellgro-Mediatech; Manassas, VA) and 2 mmol/L-glutamax (Life Technology; Carlsbad, CA). Mino cells were maintained in RPMI-1640 medium (Cellgro-Mediatech; Manassas, VA) supplemented with 20% heat-inactivated fetal bovine serum (Hyclone; Thermo Scientific; Waltham, MA), 1% Penicillin/Streptomycin (Cellgro-Mediatech; Manassas, VA) and 2 mmol/L-glutamax (Life Technology; Carlsbad, CA).
(§2) Anti-ROR1 antibody was conjugated to different linker-warheads described herein at different DARs and the cell killing activity of the ADCs were evaluated on ROR1 positive Ntera-2 cell and ROR1 negative MCF7 cells.
(§3) Ntera-2 or MCF7 cell at 625 cells/25 μL were seeded in a 384-well flat bottom white polystyrene plate one day before the assay start. ADCs were formulated at 2× starting concentration. Filter sterilized samples were serial diluted (1:3) under sterile conditions and added onto cells in triplicates. Plates were cultured at 37° C. in a CO2 incubator for 120 hours. […] Relative luminescence was measured on an ENVISION® plate reader (Perkin-Elmer; Waltham, MA). Relative luminescence readings were converted to % viability using untreated cells as controls. […]
(§4) To evaluate if the cell killing activity of anti-ROR1 ADCs is dependent on antibody binding to ROR1 expressed on cell surface, the same linker-warheads (LP3, LP4) were conjugated to an anti-GFP antibody and the cell killing of the anti-ROR1 and anti-GFP ADCs were evaluated in cell killing assays on ROR1 positive Ntera-2 cell and ROR1 negative MCF7 cells.
A general note: In ATP-based viability assays light output follows the ATP content of the culture.

In data set [2] the test system is ROR1-positive Ntera-2 cells co-cultured with PMBCS. The experiment in a line: Ntera-2 / PBMC co-culture: target cell killing and monocyte activation (FACS). The data set is classed as cell-based, human. The method, then:
ROR1-positive Ntera-2 cells were co-cultured with PMBCS at E:T=[…] and treated with Conjugate 46 or exatecan for 3 days. Live target cell count and monocyte activation were measured by FACS. […] FIG. 21A and FIG. 21B are graphs showing the percent of live target cells and monocyte activation in Ntera-2 cells following treatment with Conjugate 46 or exatecan compared to the un-conjugated antibody and an isotype control of Conjugate 46. […] Unconjugated anti-ROR1 antibody or a non-targeted ADC had no activity. […] Viability and calreticulin surface expression were measured and presented as a percentage compared to untreated cells.

The subject of data set [3] is ROR1-positive Ntera-2 cells. The experiment in a line: Induction of immunogenic cell death markers (calreticulin by FACS, HMGB1 by ELISA). The data set is classed as cell-based, human. The following applies: 3 days treatment. The method, then:
ROR1-positive Ntera-2 cells were treated with Conjugate 46 or exatecan for 3 days. Calreticulin on the cell surface was measured by FACS and HMGB1 in the cell culture medium were measured by ELISA. […] FIG. 20A and FIG. 20B illustrate calreticulin expression and HMGB1 release of Ntera-2 cells in the presence of Conjugate 46 or exatecan compared to the un-conjugated antibody and an isotype control of Conjugate 46.
In general terms: A flow cytometer gives signals particle by particle.

Data set [4] deals with ROR1 negative MCF7 cells. The experiment in a line: In vitro cell killing of ROR1 ADCs, ROR1 negative cells (Cell Titer-Glo, 120 hours). The data set is classed as cell-based, human. The following applies: Table 13.
Excerpt: as §1, §2, §3, §4

Data set [5] deals with TNBC PDX tumors. The experiment in a line: TNBC PDX models, single agent or combination with olaparib. The data set is classed as in vivo, athymic nude Fox1^nu mice. The following applies: CTG-0437, CTG-1017, and CTG-2055; olaparib p.o. 50 mg/kg qd×28. The source says: The activity of Conjugate 46 as a single agent or in combination with the PARP inhibitor olaparib was additionally assessed in TNBC PDX models. Briefly, PDX tumors, spanning varying levels of ROR1 expression and sensitivity to olaparib, were passaged in athymic nude Fox1^nu mice before being processed into tumor fragments for subcutaneous implantation into the hind flank of mice for study initiation. When tumors reached a volume of around 150-300 mm^3, the mice were randomized and enrolled into the study. Tumor-bearing mice were administered up to three weekly doses (qw×3) of Conjugate 46 i.v. at 5 mg/kg and up to twenty-eight daily doses (qd×28) of olaparib p.o. at 50 mg/kg.
Combination treatment with Conjugate 46 and olaparib (50 mg/kg, qd×28) is conducted using a 2 mg/kg, qw×3 dosing regimen for Conjugate 46. The combination therapy is assessed in six TNBC PDX models as described in Example 26.

The target in data set [6] is T1, hROR1 (ROR1-extracellular domain) (Homo sapiens, UniProt Q01973).
T1 construct: the ROR1-extracellular domain (hROR1); purchased Acro Biosystems
Nature of the data set: Biacore off-rate and kinetic analysis, ROR1 extracellular domain. The data set is classed as binding. The following applies: Sample ROR1 ECD, SPR. On the procedure: Anti-Fc polyclonal antibodies were immobilized onto a CM5 chip (GE Life Sciences) using amine coupling chemistry (from Amine Coupling Kit, GE Life Sciences). The immobilization steps were carried out at a flow rate of 25 μL/min in 1×HBS-EP+ buffer (GE Life Sciences; 10× Stock diluted before use). The sensor surfaces were activated for 7 min with a mixture of NHS (0.05 M) and EDC (0.2 M). The Anti-Fc antibodies were injected over all 4 flow cells at a concentration of 25 ug/ml in 10 mM sodium acetate, pH 4.5, for 7 min. Ethanolamine (1 M, pH 8.5) was injected for 7 min to block any remaining activated groups. […]
The data was fit with the Biacore T200 Evaluation software, using a 1-1 Langmuir binding model. KD (affinity, nM) was determined as a ratio of the kinetic rate constants calculated from the fits of the association and dissociation phases.
For anti-CD3-LC-containing IgGs that had detectable ROR1-binding in ELISA (1944-A07 and 1987-C05 variants), those antibodies were further tested for binding by surface plasmon resonance (SPR). Binding kinetics were assessed to the ROR1-frizzled domain (hROR1-Fz) or the ROR1-extracellular domain (hROR1) for 1944-A07 and 1987-C05 variants, respectively. […] KD (affinity, nM) was determined as a ratio of the kinetic rate constants calculated from the fits of the association and dissociation phases.
(In general: SPR reads the build-up and loss of mass on a sensor chip optically.)

Data set [7] can be described thus: Differential scanning fluorimetry (protein thermal shift; TM1 Fc, TM2 Fab). The data set is classed as physicochemical. The following applies: melting temperature of the Fab domain; Table 11. In a few lines: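 Protein at 0.2-2 mg/mL, mixed 1:1 with diluted SYPRO Orange in PBS, heated 25 to 95 °C at about 1.5 °C/min with fluorescence read per 0.1 °C step, in quadruplicate. TM1 is the Fc (CH2) unfolding transition and TM2 the Fab transition.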

For data set [8], the target named is T2, HCT116 cells overexpressing human ROR1 (HCT116-hRor1) (Homo sapiens, UniProt Q01973).
T2 construct: expressed in transfected cells; host or cells: HCT116
The experiment in a line: FACS cell binding, affinity maturation leads. The following applies: Table 11 (SP34 light chain).
Excerpt: as §1
Variants with expression levels >250 nM were tested in a fluorescence-activated cell sorting (FACS) cell-binding assay. […]
A mix of ROR1 positive and negative cells was prepared as follows. […] Cells were then washed 2× with FACS buffer and fixed for 10 minutes in 200 μl PBS with 2% PFA prior to fluorescence detection. […] Mean Fluorescence Intensity of ROR1 antibody binding was analyzed using FlowJo® software (Tree Star, Inc.).

Data set [9] has as its target T3, human ROR1-Fz (Homo sapiens, UniProt Q01973).
T3 construct: Frizzled (Fz, residues 165-305); HIS6 (C); purchased Acro Biosystems; host or cells: HEK293
Nature of the data set: Biacore off-rate and kinetic analysis, ROR1 frizzled domain. The data set is classed as binding. The following applies: Table 11 (SP34 light chain).

[10] abbreviates: co-culture with PMBCS at E:T=10.1, 3 days.

For `CC[C@@]1(O)C(=O)OCc2c1cc1n(c2=O)Cc2c-1nc1cc(F)c(C)c3c1c2[C@@H](N)CC3` [exatecan], in data set [1], the “NTERA-2 Span” value was 98%. In addition, in [2] (setting [10]), the “cell killing of target cells (live target cell count)” value is “induced potent cell killing of target cells” and the “monocyte activation (CD86 expression)” value was “potently induced monocyte activation”. Moreover, the “calreticulin on the cell surface” value in data set [2] (concomitant with reduced viability (FIG. 21C)) is reported as “calreticulin could be detected on the cell surface”. Besides, in [3], the “markers for immunogenic cell death (calreticulin translocation to the cell surface and HMGB1 release)” value is “induced markers for immunogenic cell death”. Besides, in [4], the “MCF-7 Span” value is listed as 91%.

As to `O=C(c1cc(Cc2n[nH]c(=O)c3ccccc23)ccc1F)N1CCN(C(=O)C2CC2)CC1` [olaparib], in data set [5], the “tumor growth suppression, single agent” value is “moderate tumor growth suppression”.

B1: 1987-C05 HC w/hUCHT1 LC3: HC of lead antibody 1987-C05 co-expressed with LC "derived from anti-CD3 antibodies": hUCHT1-LC3 (antibody, V domains shown)
VH: EVQLVESGGGLVQPGGSLRLSCAASGFNISDYDIHWVRQAPGKGLEWVGGIDPDDGSTDYADSVKGRFTISADTSKNTAYLQMNSLRAEDTAVYYCARDYGVFDYWGQGTLVTVSS
VL: DIQMTQSPSTLSASVGDRVTITCRASQDIRNYLNWYQQKPGKAPKLLIYYTSRLHSGVPSRFSGSGSGTEYTLTISSLQPDDFATYYCQQGNTLPWTFGGGTKVEIK
Regarding B1, the kd1 in data set [6] was found to be 0.000645 s⁻¹. In addition, the ka1 in [6] (1-1 Langmuir) worked out at 566000 M⁻¹ s⁻¹.

B2: SRP2196-B07 (antibody, V domains shown)
VH: EVQLVESGGGLVQPGGSLRLSCAASGFNITGYHIHWVRQAPGEGLEWVGYISPNSGATYYADSVEGRFTISADTSKNTAYLQMHSLRAEDTAVYYCTRDSRRYVRGWDYWGQGTLVTVSS
VL: QAVVTQESALTTSPGETVTLTCRSSTGAVTTSNYANWVQEKPDHLFTGLIGGTNKRAPGVPARFSGSLIGDKAALTITGAQTEDEAIYFCALWYSNLWVFGGGTKLTVL
With B2, in [7], the TM2 was 69 °C. In addition, in [8], the “HCT 116-hROR1 Binding Bmax” value was found to be 15139 MFI. Moreover, in data set [9], the “Biacore human ROR1-Fz ka” value is 185000 M⁻¹ s⁻¹ and the “Biacore human ROR1-Fz kd” value worked out at 0.000269 s⁻¹.
